Reference: patent publication US7772187B2, “Substances directed against a specific sequence essential for heparanase catalytic activity and uses thereof as heparanase inhibitors” (Hadasit Medical Research Services and Development Company, …, priority 2004, dated 2010)
Each block holds one molecule with its values, some of them ahead of it.

Legend:
heparanase processing [1] = test: Heparanase processing in heparanase-transfected cells (immunoblot with antibody #1453); format: cell-based, human
Procedure: Total cell lysates were immunoblotted with anti-heparanase antibody #1453.
Total cell lysates were then analyzed for heparanase processing by immunoblotting as above.
Total cell lysates were analyzed by immunoblotting as above.
Cell extracts were prepared using a lysis buffer containing 50 mM Tris-HCl, pH 7.4, 150 mM NaCl, 0.5% Triton X-100, supplemented with a cocktail of protease inhibitors (Roche, Indianapolis, Ind.). Protein concentration was determined (Bradford reagent, BioRad, Hercules, Calif.) and 30 μg protein was resolved by SDS-PAGE under reducing conditions using 10% gels. After electrophoresis, proteins were transferred to PVDF membrane (BioRad) and probed with the appropriate antibody followed by HRP-conjugated secondary antibody (Jackson ImmunoResearch, West Grove, Pa.) and an enhanced chemiluminescent substrate (Pierce).

heparanase [2] = biological target: T1, heparanase (Homo sapiens, UniProt Q9Y251); details: literature (Miao 1999; Parish 1999; Vlodavsky 1994); cited from earlier work
T1 sequence (Q9Y251 36-543): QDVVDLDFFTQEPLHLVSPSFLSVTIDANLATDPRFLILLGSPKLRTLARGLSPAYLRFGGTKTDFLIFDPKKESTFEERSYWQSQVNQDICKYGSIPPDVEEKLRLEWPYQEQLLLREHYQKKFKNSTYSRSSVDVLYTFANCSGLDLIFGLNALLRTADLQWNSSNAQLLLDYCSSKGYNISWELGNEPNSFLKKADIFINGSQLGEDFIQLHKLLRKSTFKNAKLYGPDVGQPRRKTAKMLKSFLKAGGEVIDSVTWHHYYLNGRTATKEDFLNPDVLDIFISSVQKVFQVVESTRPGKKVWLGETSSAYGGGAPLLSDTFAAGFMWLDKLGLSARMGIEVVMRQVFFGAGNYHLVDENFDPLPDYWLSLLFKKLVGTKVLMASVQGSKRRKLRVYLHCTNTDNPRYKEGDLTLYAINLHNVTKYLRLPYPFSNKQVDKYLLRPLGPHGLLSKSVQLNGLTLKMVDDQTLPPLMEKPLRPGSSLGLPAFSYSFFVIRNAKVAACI

heparanase processing [3] = test system: heparanase processing
Description: In order to further rule out the plasma membrane as the heparanase processing site, heparanase was targeted to the cell membrane by introducing the PDGF-R transmembrane domain at the heparanase C-terminus.

heparanase processing [4] = details: U87 glioma cells pre-treated with 100 μM for 2 hours
Procedure: The latent 65 kDa heparanase protein was then added for the indicated time points and total cell lysates were analyzed for heparanase processing by immunoblotting as above.
Cells were then fixed and immunostained with anti heparanase monoclonal antibody (BD, upper panel) and anti heparanase (733, second panel) antibodies. Merge images are shown at the third panel.
For uptake studies, the 65 kDa heparanase precursor was added to confluent cell cultures at a concentration of 1 μg/ml under serum-free conditions. At the indicated time points, the medium was aspirated, cells were washed twice with ice-cold PBS and total cell lysates were prepared as described. Heparanase uptake and processing were analyzed by immunoblotting with antibody #1453.

heparanase [5] = biological target: T2, heparanase (Homo sapiens, UniProt Q9Y251); test: Heparanase activity assay, purified/recombinant active heparanase on 35S-labeled ECM; format: biochemical; details: recombinant active heparanase 40 ng, 2 h, pH 7, 10 μg or 25 μg peptide, dose dependent, versus scrambled peptide
T2 construct: a heterodimer composed of the 8 kDa polypeptide non-covalently associated with the 50 kDa heparanase subunit; ImClone Systems Inc. (gift of Dr Miao, not purchased)
T2 sequence (Q9Y251 158-543 limits assumed): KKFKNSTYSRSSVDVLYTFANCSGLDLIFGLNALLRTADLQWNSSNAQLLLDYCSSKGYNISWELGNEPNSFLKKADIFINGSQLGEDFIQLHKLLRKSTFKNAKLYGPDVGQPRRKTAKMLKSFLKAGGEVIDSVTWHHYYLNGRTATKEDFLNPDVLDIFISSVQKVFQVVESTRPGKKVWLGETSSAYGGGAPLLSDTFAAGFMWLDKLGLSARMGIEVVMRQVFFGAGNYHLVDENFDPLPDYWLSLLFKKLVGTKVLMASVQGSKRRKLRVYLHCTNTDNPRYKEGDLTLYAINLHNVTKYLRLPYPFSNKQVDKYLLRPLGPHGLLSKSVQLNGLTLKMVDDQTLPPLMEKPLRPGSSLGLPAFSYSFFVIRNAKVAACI
T2 sequence (Q9Y251 36-109 partner limits assumed): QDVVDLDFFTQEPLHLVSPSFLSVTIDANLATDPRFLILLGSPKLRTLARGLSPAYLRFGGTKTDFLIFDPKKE
Procedure: FIG. 6A. Purified, active heparanase (20 ng) was added to 1 ml RPMI medium and incubated with affinity-purified antibody #733 (10 μg, ▴), or rabbit IgG (♦) for 1 hour on ice, followed by 1 hour incubation with ^35S-labeled ECM. Heparanase activity was determined as described in ‘Experimental procedures’.
A Purified, recombinant active heparanase (40 ng) was incubated (2 h, pH 7) with 10 μg (▴) or 25 μg (▪) of a peptide containing the amino acid sequence of residues 158 to 171, or with a control, scrambled, peptide (♦). Note a dose-responsive inhibition of heparanase activity upon treatment with the 158-171 peptide.
Preparation of ECM-coated dishes and determination of heparanase activity were performed as described in detail elsewhere [Vlodavsky, I. Current protocols in Cell Biology Vol. 1 pp. 10.14.11-10.14.14, John Wiley & Sons, New York (1999b); Goldshmidt, O. et al., J. Biol. Chem. 276, 29178-29187 (2001); Goldshmidt (2002) ibid.]. […]
To further investigate the importance of this sequence in heparanase catalytic activity, competition experiments were next performed. In these experiments, recombinant active heparanase (40 ng) was incubated (2 h, pH 7) with different concentrations of a peptide containing the amino acid sequence of residues 158 to 171, or with a control scrambled peptide (Scr), and enzymatic activity was determined. […]

Molecule: CO/C1=C\C(C)=C\[C@@H](C)[C@@H](O)[C@@H](C)C/C(C)=C/C=C/[C@H](OC)[C@@H]([C@@H](C)[C@@H](O)[C@H](C)[C@@]2(O)C[C@@H](O)[C@H](C)[C@@H](C(C)C)O2)OC1=O [bafilomycin A1]
inhibition of heparanase processing (heparanase processing [1]; heparanase-transfected C6 glioma and NMU cells, indicated concentration (nM), 20 hours): complete inhibition | concentration that completely inhibited heparanase processing (heparanase processing [1]; transfected C6 glioma and NMU cells, 20 hours): ≤ 250 nM

Molecule: laminaran sulfate
inhibition of heparanase activity (heparanase [2]): inhibit heparanase activity

inhibition of processing of membrane-targeted heparanase (heparanase processing [3]): completely abolished | inhibition of processing of exogenously-added heparanase (heparanase processing [4]): completely inhibited
Molecule: CCN(CC)CCCC(C)Nc1ccnc2cc(Cl)ccc12 (stereo not shown) [chloroquine]
reversibility of the inhibition of heparanase processing (heparanase processing [1]; heparanase-transfected C6 glioma cells, 50 μM 20 hours, then 24 hours chase in chloroquine-free medium): reversible | inhibition of heparanase processing (heparanase processing [1]; heparanase-transfected HEK-293, MDA-435, C6 and NMU cells, increasing concentrations, 20 hours, dose dependent): completely inhibited

Molecule: PI-88
inhibition of heparanase activity (heparanase [2]): inhibit heparanase activity

inhibition of heparanase enzymatic activity (heparanase [5]): significantly inhibited | inhibition of heparanase enzymatic activity (heparanase [5]; listed as Synthetic Peptide Comprising Amino Acid Residues 158 to 171 of Heparanase): Completely Blocks
Molecule: KKFKNSTYSRSSVD (listed as Homo sapiens) [synthetic peptide of residues Lys158-Asp171 of human heparanase]
